Measurements taken from publication PMC5487681, “Identification of Antifungal H^+-ATPase Inhibitors with Effect on Plasma Membrane Potential” (Antimicrobial Agents and Chemotherapy, 2017).
In brackets after ≈: the same amount, converted by molar mass. Like-named read-outs stand apart in the source and are kept apart here. Residues, ends and D or L forms follow the SMILES beside them.

Experiments:
Ca^2+-ATPase (SERCA1a) = Ca^2+-ATPase (SERCA1a) (Oryctolagus cuniculus, UniProt P04191); test: ATP hydrolysis assay, SERCA; format: biochemical, rabbit; settings: Table 1
Chain of Ca^2+-ATPase (SERCA1a) (P04191 1-994 isoform P04191-2): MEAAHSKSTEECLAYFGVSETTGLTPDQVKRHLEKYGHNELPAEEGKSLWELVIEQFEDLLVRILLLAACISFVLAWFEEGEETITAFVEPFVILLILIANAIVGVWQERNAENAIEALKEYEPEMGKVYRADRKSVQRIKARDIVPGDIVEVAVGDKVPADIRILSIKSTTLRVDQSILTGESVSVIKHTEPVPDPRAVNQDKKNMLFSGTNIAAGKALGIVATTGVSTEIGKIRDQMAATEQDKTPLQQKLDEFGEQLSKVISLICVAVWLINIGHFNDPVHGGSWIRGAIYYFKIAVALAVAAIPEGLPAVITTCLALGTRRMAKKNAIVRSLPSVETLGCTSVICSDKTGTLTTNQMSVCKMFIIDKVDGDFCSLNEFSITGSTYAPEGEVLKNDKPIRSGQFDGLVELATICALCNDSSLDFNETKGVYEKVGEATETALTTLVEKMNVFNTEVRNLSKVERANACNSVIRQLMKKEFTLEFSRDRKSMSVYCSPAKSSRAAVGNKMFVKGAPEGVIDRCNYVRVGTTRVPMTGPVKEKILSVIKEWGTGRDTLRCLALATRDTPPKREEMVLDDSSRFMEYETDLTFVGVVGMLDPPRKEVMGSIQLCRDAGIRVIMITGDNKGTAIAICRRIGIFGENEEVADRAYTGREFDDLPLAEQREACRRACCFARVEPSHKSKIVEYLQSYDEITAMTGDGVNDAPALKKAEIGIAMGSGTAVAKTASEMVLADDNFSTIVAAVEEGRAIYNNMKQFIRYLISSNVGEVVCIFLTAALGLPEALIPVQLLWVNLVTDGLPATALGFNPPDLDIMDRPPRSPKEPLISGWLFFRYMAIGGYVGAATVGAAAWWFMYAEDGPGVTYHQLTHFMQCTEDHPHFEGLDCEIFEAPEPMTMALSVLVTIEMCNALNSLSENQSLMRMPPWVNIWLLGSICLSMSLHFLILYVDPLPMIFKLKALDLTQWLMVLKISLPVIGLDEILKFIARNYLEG

[1] = Compound precipitation in the fungal growth medium; format: physicochemical; settings: fungal growth medium (RPMI), footnotes of Table 1
Method: (§1) The following fungal isolates were used: Saccharomyces cerevisiae ATCC 9763, Candida albicans SC5314, Candida parapsilosis ATCC 22019, Candida tropicalis Ct016, Candida glabrata ATCC 90030, Aspergillus fumigatus ATCC 13073, and Aspergillus flavus ATCC MYA-1005. Frozen stocks of yeast isolates in glycerol (final concentration, 20%) were prepared by growing the cells to log phase in YPD medium at 30°C and 150 rpm. Frozen stocks of mold spores were prepared by harvesting spores from 7-day-old potato glucose agar plates in phosphate-buffered saline, 0.1% Tween 80 and aliquoting these spores in the presence of glycerol (final concentration, 20%). The cells were stored at −80°C. The cells or spores were thawed and diluted to a final concentration of 0.5 × 10^5 to 2.5 × 10^5 CFU/ml in sterile Milli-Q H2O. […] The plate was incubated for 20 to 24 h at 34°C (72 h for molds), and the OD490 was measured on a Victor X5 (PerkinElmer) plate reader. Mold growth assay plates were also visually inspected. The MIC was defined as the lowest concentration inhibiting the visual growth of the microorganism. Standard errors were typically below 5%.

C. albicans cells = test: Intracellular ATP (iATP), C. albicans; format: cell-based, Candida albicans; settings: for EC50: Candida albicans, 0.5 h, 30 min, dose response (Fig. 5C), read-out: EC50 of the increase in iATP levels, C. albicans; for Maximum iATP level (per well), C. albicans: highest concentrations of inhibitors tested (Fig. 5C)
Method: (§2) S. cerevisiae and C. albicans cells were grown and washed as described above for the membrane potential and integrity assay and resuspended in SG medium (0.7% yeast nitrogen base without amino acids [BD], 50 mM succinic acid adjusted to pH 7 with Trizma base) to OD600 of 0.2 and 0.1, respectively. One hundred microliters of an S. cerevisiae or C. albicans cell suspension and 1 μl compound in DMSO were incubated for 30 min. Twenty-five microliters of the suspension was then transferred to a black 96-well plate containing 25 μl BacTiter-Glo reagent (Promega, Madison, WI) and incubated for 15 min in the dark. The luminescence was read on SpectraMax X5 (Molecular Devices, Sunnyvale, CA) plate reader with a 10 s of shaking and a 0.5 s integration time. Standard curves at 10, 100, and 1,000 nM ATP were performed with every experiment.

S. cerevisiae = test: Medium acidification assay, S. cerevisiae; format: cell-based, Saccharomyces cerevisiae; settings: 50% inhibition of medium acidification, 12 min, n = 2 to 3
Method: (§3) Frozen stocks of C. albicans and S. cerevisiae were transferred to YPD agar plates and incubated overnight at 34°C. On the next day, the cells were suspended and washed twice in 50 mM KCl, pH 6.7, after pelleting of the cells by centrifugation at 3,000 × g for 5 min. The cells were then starved overnight at 4°C in the KCl solution. […] The pH drop was then monitored by determination of the fluorescent signal with excitation at 485 nm and emission at 538 nm on a Fluoroskan Ascent plate reader (Thermo Fisher Scientific) for 12 min. The rate of medium acidification was calculated on the basis of the slope of the drop in fluorescence.

Hep-G2 cells = test: cells; format: cell-based, human
Method: In a tissue culture-treated 96-well plate (catalog number 655180; Grenier), 10,000 human hepatocyte Hep-G2 cells (catalog number 85011430; Sigma-Aldrich) were plated in 200 μl growth medium (Eagle minimal essential medium; catalog number M2279; Sigma-Aldrich), 2 mM L-glutamine (catalog number 03-020-1B; Biological Industries), 1% nonessential amino acids (catalog number XC-E1154/100; Biosera), 10% fetal bovine serum (catalog number BI-04-007-1A; Biological Industries) and incubated overnight at 37°C in 5% CO2. On the next day, fresh growth medium plus 2 μl compound in DMSO was added. The plate was incubated for a further 24 h at 37°C in 5% CO2. The medium was replaced with 100 μl freshly prepared 0.5 mg/ml 2,3-bis(2-methoxy-4-nitro-5-sulfophenyl)-5-[(phenylamino)carbonyl]-2H-tetrazolium hydroxide, sodium salt, solution (catalog number X4251; Sigma-Aldrich) in RPMI 1640 medium (catalog number R7509; Sigma-Aldrich) with 3.83 μg/ml phenazine methosulfate (catalog number P9625; Sigma-Aldrich) and incubated for 2 to 3 h at 37°C in 5% CO2. The color reaction was measured on a Victor X5 plate reader (PerkinElmer) by determination of the OD450 and the half-maximal (50%) effective concentration (EC50) was calculated.

C. albicans = test: Medium acidification assay, C. albicans; format: cell-based, Candida albicans
Method: as §3

[2] = tested on: Aspergillus flavus ATCC MYA-1005; test: microbe, parasite or virus in culture; format: cell-based; settings: read-out: MIC for growth inhibition, A. flavus
Method: as §1

[3] = tested on: Saccharomyces cerevisiae ATCC 9763; test: microbe, parasite or virus in culture; format: cell-based; settings: read-out: MIC for growth inhibition, S. cerevisiae
Method: as §1

S. cerevisiae cells = test: Intracellular ATP (iATP), S. cerevisiae; format: cell-based, Saccharomyces cerevisiae; settings: for Effects on iATP levels, in words: S. cerevisiae and C. albicans (Fig. 5A, B), compared to compounds 14, 19 and BM2
Method: as §2

[4] = ATP hydrolysis at pH 7.4 (compounds marked b)
[5] = Saccharomyces cerevisiae, 0.2 h
[6] = Homo sapiens, HepG2, 24 h, medium with 10% fetal bovine serum, XTT readout, read-out: EC50 for Hep-G2 cells at 24 h
[7] = Candida albicans, 0.2 h, 50% inhibition of medium acidification, 12 min, n = 2 to 3, read-out: IC50 for acidification, C. albicans
[8] = Saccharomyces cerevisiae, ATCC9763, Table 3

Cc1c(-c2ccccc2)[o+]c2ccccc2c1C#Cc1ccccc1 [Compound 6]
IC50 (Ca^2+-ATPase (SERCA1a); [4]): 3.4 ± 0.6 µM
Compound precipitation observed in the growth medium at concentrations down to [1]: d Compound precipitation was observed in the growth medium at concentrations down to 48 μM.

COc1ccc(-c2cc(C(=O)Nc3ccc4c(c3)OCCO4)c3ccccc3n2)c(OC)c1 [Compound 8]
Compound precipitation observed in the growth medium at concentrations down to [1]: d Compound precipitation was observed in the growth medium at concentrations down to 48 μM.

COc1ccc(-c2cc(C(=O)Nc3ccc(C(C)C)cc3)c3ccccc3n2)c(OC)c1 [Compound 3]
Compound precipitation observed in the growth medium at concentrations down to [1]: e Compound precipitation was observed in the growth medium at concentrations down to 150 μM.

CCCCOc1ccc(C2C(C#N)=C(N)Oc3cc(O)ccc32)cc1 (centres unmarked) [Compound 11]
Compound precipitation observed in the growth medium at concentrations down to [1]: d Compound precipitation was observed in the growth medium at concentrations down to 48 μM.

CCN(CC)CCCNc1nc(SC)nc2c1sc1nc(-c3ccccc3)c3c(c12)CCC3 [Compound 19]
EC50 (C. albicans cells): 7 µM
Maximum iATP level (per well), C. albicans (C. albicans cells): about 500 nM
IC50 (S. cerevisiae; [5]): 2.3 ± 0.1 µM
EC50 (Hep-G2 cells; [6]): 24.2 ± 0.5 µM
Toxicity window between C. albicans and Hep-G2 cells (Hep-G2 cells; human, 24 h): 3 fold
IC50 (C. albicans; [7]): 2.3 ± 0.5 µM
MIC ([2]; Aspergillus flavus, Table 3): 12 µM (≈ 5.73 µg/mL)
MIC [3, 8]: 3.7 µM (≈ 1.77 µg/mL)

N=C(N)NCCC[C@@H](N)C(=O)N[C@H](CCCNC(=N)N)C(=O)N[C@H](CCCNC(=N)N)C(=O)N[C@H](Cc1ccccc1)C(=O)N[C@H](Cc1c[nH]c2ccccc12)C(=O)N[C@H](Cc1c[nH]c2ccccc12)C(=O)N[C@H](Cc1ccccc1)C(=O)N[C@H](CCCNC(=N)N)C(=O)N[C@H](CCCNC(=N)N)C(=O)N[C@H](CCCNC(=N)N)C(N)=O [BM2, reference compound] (HELM PEPTIDE1{[dR].[dR].[dR].[dF].[dW].[dW].[dF].[dR].[dR].[dR].[am]}$$$$V2.0)
Effect on mammalian Hep-G2 cells (Hep-G2 cells): no effect
EC50 (Hep-G2 cells; 24 h): > 100 µM
MIC ([2]; ATCC MYA-1005): >150 µM
MIC ([3]; ATCC 9763): 4.7 µM (≈ 7.62 µg/mL)

O=c1c2ccccc2[se]n1-c1ccccc1 [Ebselen, reference compound]
IC50 (S. cerevisiae; [5]): 7.6 µM
EC50 (Hep-G2 cells; [6]): 10.7 ± 7 µM
IC50 (C. albicans; [7]): 9.4 ± 2.1 µM
IC50 (C. albicans; Candida albicans, read-out: IC50 for C. albicans, extracellular acidification): 11 µM
MIC ([2]; Aspergillus flavus, Table 3): 24 µM (≈ 6.58 µg/mL)
MIC [3, 8]: 7.5 µM (≈ 2.06 µg/mL)

CN(C)CCCNc1ncnc2c1sc1nc(N3CCCCC3)c3c(c12)CCCC3 [Compound 16]
IC50 (S. cerevisiae; [5]): 7.6 ± 3.4 µM
EC50 (Hep-G2 cells; [6]): 2.6 ± 0.9 µM
IC50 (C. albicans; [7]): 3.4 ± 1.6 µM
MIC ([2]; Aspergillus flavus, Table 3): 47 µM (≈ 20 µg/mL)
MIC [3, 8]: 3.2 µM (≈ 1.36 µg/mL)

CCOc1ccc2nc3cc(NC(=O)c4cccc(Br)c4)ccc3c(N)c2c1 [Compound 5]
Compound precipitation observed in the growth medium at concentrations down to [1]: f Compound precipitation was observed in the growth medium at concentrations down to 75 μM.

Oc1cccc(Nc2nc(-c3ccc(Cl)c(Cl)c3)cs2)c1 [Compound 7]
IC50 (Ca^2+-ATPase (SERCA1a); [4]): 3.8 ± 0.6 µM
Compound precipitation observed in the growth medium at concentrations down to [1]: d Compound precipitation was observed in the growth medium at concentrations down to 48 μM.

CN(C)CCCNc1ncnc2c1sc1nc(-c3ccccc3)c3c(c12)CCC3 [Compound 18]
IC50 (S. cerevisiae; [5]): 12.5 ± 1.1 µM
EC50 (Hep-G2 cells; [6]): 3.6 ± 1.1 µM
IC50 (C. albicans; [7]): 8.8 ± 0.4 µM
MIC ([2]; Aspergillus flavus, Table 3): > 75 µM
MIC [3, 8]: 24 µM (≈ 9.69 µg/mL)

[O]=[V]([O-])([O-])[O-] [Vanadate, reference compound]
IC50 (S. cerevisiae): > 40 µM
Effects on iATP levels, in words (S. cerevisiae cells): minimal effects
EC50 (Hep-G2 cells; 24 h, medium with 10% fetal bovine serum, XTT readout, read-out: EC50 for Hep-G2 cells at 24 h): > 500 µM
IC50 (C. albicans; 50% inhibition of medium acidification, 12 min, n = 2 to 3, read-out: IC50 for acidification, C. albicans): > 40 µM
MIC ([2]; Table 3): >750 µM
MIC ([3]; Table 3): >750 µM

O=C1/C(=C/c2ccc(-c3cc(Cl)ccc3Cl)o2)C=C(c2ccccc2)N1c1ccccc1O [Compound 1]
Compound precipitation observed in the growth medium at concentrations down to [1]: c Compound precipitation was observed in the growth medium at concentrations down to 15 μM.

CCCCc1nc2sc3c(NCCCN(C)C)ncnc3c2c2c1CCCC2 [Compound 14]
Increase in iATP levels compared to untreated control, C. albicans (C. albicans cells; 30 min of treatment): 1,500%
EC50 (C. albicans cells): 13 µM
Maximum iATP level (per well), C. albicans (C. albicans cells): about 500 nM
IC50 (S. cerevisiae; [5]): 11.2 ± 2.7 µM
iATP levels in the presence of oligomycin, S. cerevisiae (S. cerevisiae cells; 30 min, oligomycin A at 40 μM): comparable to those for control cells
Increase in iATP levels compared to untreated control, S. cerevisiae (S. cerevisiae cells; 30 min of treatment, species of the BM2 value not given): 200%
EC50 (Hep-G2 cells; [6]): 2.3 µM
IC50 (C. albicans; [7]): 6.6 ± 2.5 µM
MIC ([2]; Aspergillus flavus, Table 3): 75 µM (≈ 29.8 µg/mL)
MIC [3, 8]: 7.5 µM (≈ 2.98 µg/mL)

CCCCc1nc2sc3c(NCCCN(C)C)nc(SC)nc3c2c2c1CCC2 [Compound 15]
IC50 (S. cerevisiae; [5]): 1.7 ± 0.1 µM
EC50 (Hep-G2 cells; [6]): 2.8 ± 0.1 µM
IC50 (C. albicans; [7]): 1.6 µM
MIC ([2]; Aspergillus flavus, Table 3): 24 µM (≈ 10.3 µg/mL)
MIC [3, 8]: 1.5 µM (≈ 0.644 µg/mL)

CCc1nc2sc3c(NCCCN(C)C)ncnc3c2c2c1CCCC2 [Compound 17]
IC50 (S. cerevisiae; [5]): 39.6 ± 10.3 µM
Effects on iATP levels, in words (S. cerevisiae cells): minimal effects
EC50 (Hep-G2 cells; [6]): 5.8 ± 1.1 µM
IC50 (C. albicans; [7]): 19.1 ± 1.7 µM
MIC ([2]; Aspergillus flavus, Table 3): > 150 µM
MIC [3, 8]: 47 µM (≈ 17.4 µg/mL)

COc1cccc(Nc2nc(Cl)nc(Nc3cccc(OC)c3)n2)c1 [Compound 9]
Compound precipitation observed in the growth medium at concentrations down to [1]: d Compound precipitation was observed in the growth medium at concentrations down to 48 μM.

COc1ccc(Cn2c(SCc3cc(C)ccc3C)nc3cc(OC)c(OC)cc3c2=N)cc1 [Compound 12]
IC50 (Ca^2+-ATPase (SERCA1a); ATP hydrolysis at pH 7): > 105 µM
Compound precipitation observed in the growth medium at concentrations down to [1]: e Compound precipitation was observed in the growth medium at concentrations down to 150 μM.

CC1CCCCN1CC(O)Cn1c(-c2ccccc2)c(-c2ccccc2)c2ccc3ccccc3c21 (centres unmarked) [Compound 4]
Compound precipitation observed in the growth medium at concentrations down to [1]: d Compound precipitation was observed in the growth medium at concentrations down to 48 μM.
